Test results taken from PubChem BioAssay (NCI).
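Growth conditions: 96-well plates. Treatment: test compound, 48 hours, 5 concentrations. Analysis: linear interpolation between bracketing concentrations; unreached endpoints set to highest concentration. TGI: total growth inhibition.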

Key:
Experiment in all cases: DTP human tumour cell line panel, 48 h
NCI-H522 lung = tested on: NCI-H522 lung
DU-145 prostate = tested on: DU-145 prostate
BT-549 breast = tested on: BT-549 breast
HS 578T breast = tested on: HS 578T breast
HOP-62 NSCLC = tested on: HOP-62 NSCLC
COLO 205 colon = tested on: COLO 205 colon
T-47D breast = tested on: T-47D breast
HCT-15 colon = tested on: HCT-15 colon
OVCAR-3 ovarian = tested on: OVCAR-3 ovarian
SNB-19 CNS = tested on: SNB-19 CNS
SK-OV-3 ovarian = tested on: SK-OV-3 ovarian
SK-MEL-2 melanoma = tested on: SK-MEL-2 melanoma
SF-539 CNS = tested on: SF-539 CNS
CAKI-1 renal = tested on: CAKI-1 renal
LOX IMVI melanoma = tested on: LOX IMVI melanoma
SR leukemia = tested on: SR leukemia
RPMI-8226 leukemia = tested on: RPMI-8226 leukemia
786-0 renal = tested on: 786-0 renal
TK-10 renal = tested on: TK-10 renal
HCC-2998 colon = tested on: HCC-2998 colon

## O=C1C(=O)c2c(oc(=O)c3ccccc23)-c2ccccc21
NCI-H522 lung
  TGI: > 25 µM
DU-145 prostate
  TGI: > 25 µM
BT-549 breast
  TGI: > 25 µM
HS 578T breast
  TGI: > 25 µM
HOP-62 NSCLC
  TGI: > 25 µM
COLO 205 colon
  TGI: > 25 µM
T-47D breast
  TGI: > 25 µM
HCT-15 colon
  TGI: > 25 µM
OVCAR-3 ovarian
  TGI: > 25 µM
SNB-19 CNS
  TGI: > 25 µM
SK-OV-3 ovarian
  TGI: > 25 µM
SK-MEL-2 melanoma
  TGI: > 25 µM
SF-539 CNS
  TGI: > 25 µM
CAKI-1 renal
  TGI: > 25 µM
LOX IMVI melanoma
  TGI: > 25 µM
SR leukemia
  TGI: > 25 µM
RPMI-8226 leukemia
  TGI: > 25 µM
786-0 renal
  TGI: > 25 µM
TK-10 renal
  TGI: > 25 µM
HCC-2998 colon
  TGI: > 25 µM

## CCCCCCCCCCCCCCCCCCNc1ccn(C2OC(COP(=O)(O)OC3CC(n4cc(F)c(=O)[nH]c4=O)OC3COP(=O)(O)OCC3OC(n4ccc(N)nc4=O)C(O)C3O)C(O)C2O)c(=O)n1 (stereo not given)
NCI-H522 lung
  TGI: > 69.7 µM
DU-145 prostate
  TGI: 39.8 µM
BT-549 breast
  TGI: 33.4 µM
HS 578T breast
  TGI: > 100 µM
HOP-62 NSCLC
  TGI: > 76.8 µM
COLO 205 colon
  TGI: > 48.7 µM
T-47D breast
  TGI: > 100 µM
HCT-15 colon
  TGI: 41.4 µM
OVCAR-3 ovarian
  TGI: > 100 µM
SNB-19 CNS
  TGI: > 57.9 µM
SK-OV-3 ovarian
  TGI: > 58.8 µM
SK-MEL-2 melanoma
  TGI: 37.3 µM
SF-539 CNS
  TGI: 2.17 µM
CAKI-1 renal
  TGI: 35.5 µM
LOX IMVI melanoma
  TGI: 20 µM
SR leukemia
  TGI: 25.6 µM
RPMI-8226 leukemia
  TGI: 71.4 µM
786-0 renal
  TGI: > 58.1 µM
TK-10 renal
  TGI: > 100 µM
HCC-2998 colon
  TGI: 27.3 µM

## CCC(C)C(C(=O)N/N=C1/SCC(=O)N1c1ccccc1)C(=O)N/N=C1/SCC(=O)N1c1ccccc1 (stereo not given)
NCI-H522 lung
  TGI: > 100 µM
DU-145 prostate
  TGI: > 100 µM
BT-549 breast
  TGI: > 100 µM
HS 578T breast
  TGI: > 100 µM
HOP-62 NSCLC
  TGI: > 100 µM
COLO 205 colon
  TGI: > 100 µM
T-47D breast
  TGI: > 100 µM
HCT-15 colon
  TGI: > 100 µM
OVCAR-3 ovarian
  TGI: > 100 µM
SNB-19 CNS
  TGI: > 100 µM
SK-OV-3 ovarian
  TGI: 74.6 µM
SK-MEL-2 melanoma
  TGI: 83.1 µM
SF-539 CNS
  TGI: > 100 µM
CAKI-1 renal
  TGI: > 100 µM
LOX IMVI melanoma
  TGI: > 100 µM
SR leukemia
  TGI: > 100 µM
786-0 renal
  TGI: > 100 µM
TK-10 renal
  TGI: > 100 µM
HCC-2998 colon
  TGI: > 100 µM

## C=C(Cl)c1c(OC)cccc1OCc1ccccc1
NCI-H522 lung
  TGI: > 100 µM
DU-145 prostate
  TGI: > 100 µM
BT-549 breast
  TGI: > 100 µM
HS 578T breast
  TGI: > 100 µM
HOP-62 NSCLC
  TGI: > 100 µM
COLO 205 colon
  TGI: > 100 µM
T-47D breast
  TGI: 95.7 µM
HCT-15 colon
  TGI: > 100 µM
OVCAR-3 ovarian
  TGI: > 100 µM
SNB-19 CNS
  TGI: > 100 µM
SK-OV-3 ovarian
  TGI: > 100 µM
SK-MEL-2 melanoma
  TGI: > 100 µM
SF-539 CNS
  TGI: > 100 µM
CAKI-1 renal
  TGI: > 100 µM
LOX IMVI melanoma
  TGI: > 100 µM
SR leukemia
  TGI: > 100 µM
RPMI-8226 leukemia
  TGI: > 100 µM
786-0 renal
  TGI: > 100 µM
TK-10 renal
  TGI: > 100 µM
HCC-2998 colon
  TGI: > 100 µM

## COc1ccc2nc3c([N+](=O)[O-])ccc4c3c(c2c1)N=CN4CCCN(C)C
NCI-H522 lung
  TGI: 9.61 µM
DU-145 prostate
  TGI: 13.9 µM
BT-549 breast
  TGI: 23.5 µM
HS 578T breast
  TGI: 27.5 µM
HOP-62 NSCLC
  TGI: 15.1 µM
COLO 205 colon
  TGI: 5.77 µM
T-47D breast
  TGI: 27.4 µM
HCT-15 colon
  TGI: 15.2 µM
OVCAR-3 ovarian
  TGI: 20.2 µM
SNB-19 CNS
  TGI: 22.2 µM
SK-OV-3 ovarian
  TGI: 25.3 µM
SK-MEL-2 melanoma
  TGI: 22.8 µM
SF-539 CNS
  TGI: 13 µM
CAKI-1 renal
  TGI: 7.26 µM
LOX IMVI melanoma
  TGI: 8.78 µM
SR leukemia
  TGI: 1.03 µM
RPMI-8226 leukemia
  TGI: 0.772 µM
786-0 renal
  TGI: 14.3 µM
TK-10 renal
  TGI: 6.51 µM
HCC-2998 colon
  TGI: 6.54 µM

## N=c1oc2ccc([N+](=O)[O-])cc2cc1C(=O)NCc1ccccc1
NCI-H522 lung
  TGI: 25.8 µM
DU-145 prostate
  TGI: > 100 µM
BT-549 breast
  TGI: 30 µM
HS 578T breast
  TGI: 42.9 µM
HOP-62 NSCLC
  TGI: > 100 µM
COLO 205 colon
  TGI: 40.5 µM
T-47D breast
  TGI: 67.3 µM
HCT-15 colon
  TGI: 33.5 µM
SNB-19 CNS
  TGI: > 100 µM
SK-OV-3 ovarian
  TGI: > 100 µM
SK-MEL-2 melanoma
  TGI: 39.1 µM
SF-539 CNS
  TGI: 33.3 µM
CAKI-1 renal
  TGI: 36.2 µM
LOX IMVI melanoma
  TGI: 32.2 µM
SR leukemia
  TGI: > 100 µM
RPMI-8226 leukemia
  TGI: > 100 µM
786-0 renal
  TGI: 40 µM
TK-10 renal
  TGI: 99.4 µM
HCC-2998 colon
  TGI: > 100 µM

## COC(=O)C(Cc1c[nH]c2ccccc12)N=C1Nc2ccncc2S(=O)(=O)N1c1ccccc1 (stereo not given)
NCI-H522 lung
  TGI: > 100 µM
DU-145 prostate
  TGI: > 100 µM
BT-549 breast
  TGI: > 100 µM
HS 578T breast
  TGI: > 100 µM
HOP-62 NSCLC
  TGI: > 100 µM
COLO 205 colon
  TGI: 33.9 µM
T-47D breast
  TGI: 51 µM
HCT-15 colon
  TGI: > 100 µM
OVCAR-3 ovarian
  TGI: 99.5 µM
SNB-19 CNS
  TGI: > 100 µM
SK-OV-3 ovarian
  TGI: > 100 µM
SK-MEL-2 melanoma
  TGI: 68.5 µM
SF-539 CNS
  TGI: 35 µM
CAKI-1 renal
  TGI: > 100 µM
LOX IMVI melanoma
  TGI: 69.3 µM
SR leukemia
  TGI: 42.1 µM
RPMI-8226 leukemia
  TGI: 29.3 µM
786-0 renal
  TGI: > 100 µM
TK-10 renal
  TGI: > 100 µM
HCC-2998 colon
  TGI: 60.8 µM

## CC1=NN(C(=O)CC(=O)Nc2ccc(C)cc2)C(=O)C1N=Nc1ccc(C(=O)O)cc1 (stereo not given)
NCI-H522 lung
  TGI: > 100 µM
DU-145 prostate
  TGI: > 100 µM
BT-549 breast
  TGI: > 100 µM
HS 578T breast
  TGI: > 100 µM
HOP-62 NSCLC
  TGI: > 100 µM
COLO 205 colon
  TGI: > 100 µM
T-47D breast
  TGI: > 100 µM
HCT-15 colon
  TGI: > 100 µM
OVCAR-3 ovarian
  TGI: > 100 µM
SNB-19 CNS
  TGI: > 100 µM
SK-MEL-2 melanoma
  TGI: > 100 µM
SF-539 CNS
  TGI: > 100 µM
CAKI-1 renal
  TGI: > 100 µM
LOX IMVI melanoma
  TGI: > 100 µM
SR leukemia
  TGI: > 100 µM
RPMI-8226 leukemia
  TGI: > 100 µM
786-0 renal
  TGI: > 100 µM
TK-10 renal
  TGI: > 100 µM
HCC-2998 colon
  TGI: > 100 µM

## CC(C)=CCC[C@@H](C)C1=C(O)C(O)C(C)=C2N=C(c3ccccc3)C(=O)OC21 (stereo not given in full)
NCI-H522 lung
  TGI: 1.9 µM
DU-145 prostate
  TGI: > 25 µM
BT-549 breast
  TGI: > 25 µM
HS 578T breast
  TGI: 13.4 µM
HOP-62 NSCLC
  TGI: 8.5 µM
COLO 205 colon
  TGI: > 25 µM
T-47D breast
  TGI: 8.66 µM
HCT-15 colon
  TGI: > 25 µM
OVCAR-3 ovarian
  TGI: > 25 µM
SNB-19 CNS
  TGI: > 25 µM
SK-OV-3 ovarian
  TGI: 11.1 µM
SK-MEL-2 melanoma
  TGI: 6.75 µM
SF-539 CNS
  TGI: 13.8 µM
CAKI-1 renal
  TGI: 9.89 µM
LOX IMVI melanoma
  TGI: > 25 µM
SR leukemia
  TGI: > 20.5 µM
RPMI-8226 leukemia
  TGI: > 7.03 µM
786-0 renal
  TGI: > 20.5 µM
TK-10 renal
  TGI: > 25 µM
HCC-2998 colon
  TGI: 21.2 µM

## COC(=O)c1cc2c(o1)Sc1ccccc1NC2=O
NCI-H522 lung
  TGI: > 100 µM
DU-145 prostate
  TGI: > 100 µM
BT-549 breast
  TGI: > 100 µM
HS 578T breast
  TGI: 63.8 µM
HOP-62 NSCLC
  TGI: > 100 µM
COLO 205 colon
  TGI: > 100 µM
T-47D breast
  TGI: > 100 µM
HCT-15 colon
  TGI: > 100 µM
OVCAR-3 ovarian
  TGI: > 100 µM
SNB-19 CNS
  TGI: > 100 µM
SK-OV-3 ovarian
  TGI: > 100 µM
SK-MEL-2 melanoma
  TGI: > 100 µM
SF-539 CNS
  TGI: > 100 µM
CAKI-1 renal
  TGI: > 100 µM
LOX IMVI melanoma
  TGI: > 100 µM
SR leukemia
  TGI: > 100 µM
RPMI-8226 leukemia
  TGI: > 100 µM
786-0 renal
  TGI: > 100 µM
TK-10 renal
  TGI: > 100 µM
HCC-2998 colon
  TGI: > 100 µM

## CC1(C)C2CCC3=C(CCC4(C)C5C[C@](C)(C(=O)O)CC[C@]5(C)CC[C@]34C)[C@@]2(C)CC[C@@H]1O (stereo not given in full)
NCI-H522 lung
  TGI: 40.8 µM
DU-145 prostate
  TGI: 34.5 µM
BT-549 breast
  TGI: 39.1 µM
HS 578T breast
  TGI: 59.1 µM
HOP-62 NSCLC
  TGI: 31.3 µM
COLO 205 colon
  TGI: > 100 µM
T-47D breast
  TGI: 38.4 µM
HCT-15 colon
  TGI: 37.7 µM
OVCAR-3 ovarian
  TGI: 29.8 µM
SK-OV-3 ovarian
  TGI: 35.7 µM
SF-539 CNS
  TGI: > 100 µM
CAKI-1 renal
  TGI: 37.7 µM
LOX IMVI melanoma
  TGI: 31.2 µM
SR leukemia
  TGI: > 100 µM
RPMI-8226 leukemia
  TGI: 51.1 µM
786-0 renal
  TGI: 29.3 µM
TK-10 renal
  TGI: 32.2 µM
HCC-2998 colon
  TGI: > 100 µM
